Columns and labels:
Type in all cases: cell-based
[1] = tested on: Cryptococcus neoformans CCUG 23451; test: Robotic MIC assay, Cryptococcus neoformans (Example 6)
Experimental: Cryptococcus sp. was grown at 30° C. for 96 h on YM-agar. Spores and aerial mycelium was cut out from the agar, suspended in 1 ml YM-broth and dispersed with glass beads (1 mm) in a mini bead beater for 2 min. The suspension was added glycerol to 10% and frozen at −80° C. Each batch of frozen stock culture was then characterized in separate growth experiments using Mueller-Hinton and RPMI to determine the minimum amount of inoculum giving satisfactory growth after 48 h under the conditions relevant for the MIC assay. This inoculum procedure is used in order to reduce day to day variation in bioassays.
Robotic minimum inhibitory concentration (MIC) assay was performed as follows. OligoG CF-5/20 was dissolved in medium (Mueller-Hinton, RPMI with 2% glucose, Sabouraud or YM) to 1.25 times of the desired assay concentrations (2, 6 and 10%). […].
(§1) Two-fold serial dilutions of antifungal agents were made in medium with different concentrations of OligoG CF-5/20, and the solutions were placed in four parallel wells in Nunc 384-well micro plates (30 μl per well in Nunc 242757 microplates). A group of 8 wells with no addition of antifungal agents for each OligoG CF-5/20 concentration was included on each micro plate as growth reference. Each well in the 384-well assay plates was added 7.5 μl of the medium innoculated with frozen stock culture of the relevant strains.
The microplates were placed in plastic bags and incubated without shaking at 34° C. The optical density at 600 nm in the microwells was measured after certain time points from 24 h to 96 h of incubation. […]

[2] = tested on: various Aspergillus species; test: Robotic MIC assay, summary over species (Example 4); conditions: Aspergillus species tested
Experimental: Aspergillus sp. was grown at 30° C. for 96 h on YM-agar. Spores and aerial mycelium was cut out from the agar, suspended in 1 ml YM-broth and dispersed with glass beads (1 mm) in a mini bead beater for 2 min. Glycerol was added to the suspension to 10% and frozen at −80° C.
Each batch of frozen stock culture was then characterized in separate growth experiments using Mueller-Hinton broth to determine the minimum amount of inoculum giving satisfactory growth after 48 h under the conditions relevant for the MIC assay. This inoculation procedure is used in order to reduce day to day variation in bioassays.
Robotic minimum inhibitory concentration (MIC) assay was performed as follows. OligoG CF-5/20 was dissolved in medium (Mueller-Hinton broth) to 1.25 times of the desired assay concentrations (2, 6 and 10%). […].
as §1, with “of the MH medium inoculated” for “of the medium innoculated”, “MH medium inoculated with frozen” for “the medium innoculated with frozen”
The microplates were placed in plastic bags and incubated without shaking at 34° C. The optical density at 600 nm in the microwells was measured after approximately 24 and 48 hours of incubation. […]

C. tropicalis AG1 (oral) = test: Robotic MIC assay, Candida strains (Example 2); conditions: 48 h, Mueller-Hinton broth
Experimental: (§2) A robotic MIC Assay was performed as follows. OligoG CF-5/20 were dissolved in medium (Mueller-Hinton broth or M19 broth depending on experiment) to 1.25 times of the desired assay concentrations (2, 6 and 10%). The antifungal agents under test were dissolved in medium without OligoG CF-5/20 and in medium with OligoG CF-5/20 at a concentration of 1.25 times the highest desired assay concentrations. For experiments where the effect of adding different concentrations of Na^+ was investigated, NaCl was dissolved in medium to the desired concentrations (10, 30 and 50 mM).
(§3) Two-fold serial dilutions of antifungal agents were made in medium with different concentrations of OligoG CF-5/20, and the solutions were placed in four parallel wells in Nunc 384-well micro plates (30 μl per well in Nunc 242757 microplates). A group of 8 wells with no addition of antifungal agents for each OligoG CF-5/20 concentration was included on each microplate as growth reference. To each well in the 384-well assay plates was added 7.5 μl of medium inoculated with a frozen stock culture of Candida albicans (strain CCUG 39343).
(§4) The micro plates were placed in plastic bags and incubated without shaking at 34° C. The optical density at 600 nm in the microwells was measured after approximately 13, 18, 24 and 34 hours of incubation, and the relative growth yield in each well was calculated based on the growth in the reference groups.
(§5) The robotic assay described in Example 1 was employed in this Example. Strains were grown in Mueller-Hinton broth (LAB114 from Lab M Limited) and MIC values (μg ml-1) were determined for each antifungal after incubation for 48 h in the presence of 0, 2, 6 and 10% OligoG CF-5/20 G-fragments. […] OligoG CF-5/20 G-fragments were provided by AlgiPharma AS, Norway.
(§6) Candida strains used were as follows: • C. albicans CCUG 39343 (strain from culture collection) • C. parapsillosis ATCC 22019T (strain from culture collection) • C. krusei 141/03 (candidosis) • C. krusei 249/03(2) (ulceration) • C. lusitaniae 994/01(2) (candidosis) • C. tropicalis 12 (vaginal) • C. tropicalis 75 (vaginal) • C. tropicalis 519468 (urinary) • C. tropicalis 544123 (urinary) • C. tropicalis 250/03 (candidosis) • C. tropicalis AG1 (oral) • C. tropicalis T2.2 (oral)

[3] = tested on: C. tropicalis 12 (vaginal); test: Robotic MIC assay, Candida strains (Example 2); conditions: 48 h, Mueller-Hinton broth
Experimental: as §2, §3, §4, §5, §6

[4] = tested on: C. krusei 249/03(2) (ulceration); test: Robotic MIC assay, Candida strains (Example 2); conditions: 48 h, Mueller-Hinton broth
Experimental: as §2, §3, §4, §5, §6

[5] = tested on: C. tropicalis 544123 (urinary); test: Robotic MIC assay, Candida strains (Example 2); conditions: 48 h, Mueller-Hinton broth
Experimental: as §2, §3, §4, §5, §6

C[C@@H]1[C@H](O)[C@@H](C)/C=C/C=C/CC/C=C/C=C/C=C/C=C/C(O[C@H]2O[C@H](C)[C@@H](O)[C@H](N)[C@@H]2O)CC2O[C@](O)(CC(O)C(O)CCC(O)CC(O)CC(O)CC(=O)O[C@H]1C)CC(O)C2C(=O)O (stereo partly drawn) [Nystatin, nystatin]
Minimum Inhibitory Concentration (MIC) ([1]; MH, 0% OligoG, 96 hours): 4 µg/mL
Minimum Inhibitory Concentration (MIC) ([1]; MH, 2% OligoG, 96 hours): 1 µg/mL
Minimum Inhibitory Concentration (MIC) ([1]; RPMI 2% GLU, 0% OligoG, 72 hours): 8 µg/mL
Minimum Inhibitory Concentration (MIC) ([1]; RPMI 2% GLU, 0% OligoG, 96 hours): 8 µg/mL
Minimum Inhibitory Concentration (MIC) ([1]; RPMI 2% GLU, 2% OligoG, 72 hours): 8 µg/mL
Minimum Inhibitory Concentration (MIC) ([1]; RPMI 2% GLU, 2% OligoG, 96 hours): 8 µg/mL
Minimum Inhibitory Concentration (MIC) ([1]; RPMI 2% GLU, 6% OligoG, 72 hours): 4 µg/mL
Minimum Inhibitory Concentration (MIC) ([1]; RPMI 2% GLU, 6% OligoG, 96 hours): 8 µg/mL
Minimum Inhibitory Concentration (MIC) ([1]; Sabouraud, 0% OligoG, 72 hours): 2 µg/mL
Minimum Inhibitory Concentration (MIC) ([1]; Sabouraud, 0% OligoG, 96 hours): 2 µg/mL
Minimum Inhibitory Concentration (MIC) ([1]; Sabouraud, 2% OligoG, 72 hours): 0.5 µg/mL
Minimum Inhibitory Concentration (MIC) ([1]; Sabouraud, 2% OligoG, 96 hours): 0.5 µg/mL
Minimum Inhibitory Concentration (MIC) ([1]; Sabouraud, 6% OligoG, 72 hours): 0.25 µg/mL
Minimum Inhibitory Concentration (MIC) ([1]; Sabouraud, 6% OligoG, 96 hours): 0.25 µg/mL
Minimum Inhibitory Concentration (MIC) ([1]; YM, 0% OligoG, 72 hours): 8 µg/mL
Minimum Inhibitory Concentration (MIC) ([1]; YM, 0% OligoG, 96 hours): 16 µg/mL
Minimum Inhibitory Concentration (MIC) ([1]; YM, 2% OligoG, 72 hours): 4 µg/mL
Minimum Inhibitory Concentration (MIC) ([1]; YM, 2% OligoG, 96 hours): 8 µg/mL
effect on MIC when OligoG is added to the medium ([1]; media: RPMI with 2% glucose, MH, Sabouraud, YM): reduction in MIC in all media tested
effect of addition of OligoG CF-5/20 on MIC values [2]: reduction in MIC values
Minimum Inhibitory Concentration (MIC) (C. tropicalis AG1 (oral); 0% OligoG): 8 µg/mL
Minimum Inhibitory Concentration (MIC) (C. tropicalis AG1 (oral); 2% OligoG): 8 µg/mL
Minimum Inhibitory Concentration (MIC) (C. tropicalis AG1 (oral); 6% OligoG): 4 µg/mL
Minimum Inhibitory Concentration (MIC) (C. tropicalis AG1 (oral); 10% OligoG): 2 µg/mL
Minimum Inhibitory Concentration (MIC) ([3]; 0% OligoG): 8 µg/mL
Minimum Inhibitory Concentration (MIC) ([3]; 2% OligoG): 8 µg/mL
Minimum Inhibitory Concentration (MIC) ([3]; 6% OligoG): 4 µg/mL
Minimum Inhibitory Concentration (MIC) ([3]; 10% OligoG): 4 µg/mL
Minimum Inhibitory Concentration (MIC) ([4]; 0% OligoG): 8 µg/mL
Minimum Inhibitory Concentration (MIC) ([4]; 2% OligoG): 8 µg/mL
Minimum Inhibitory Concentration (MIC) ([4]; 6% OligoG): 8 µg/mL
Minimum Inhibitory Concentration (MIC) ([4]; 10% OligoG): 4 µg/mL
Minimum Inhibitory Concentration (MIC) ([5]; 0% OligoG): 8 µg/mL
Minimum Inhibitory Concentration (MIC) ([5]; 2% OligoG): 8 µg/mL
Minimum Inhibitory Concentration (MIC) ([5]; 6% OligoG): 2 µg/mL
Minimum Inhibitory Concentration (MIC) ([5]; 10% OligoG): 2 µg/mL

— patent publication US20150126467A1, “USE OF ALGINATE OLIGOMERS TO ENHANCE THE EFFECTS OF ANTIFUNGAL AGENTS” (AlgiIPharma AS, priority 2011, published 2015)
